Test results: PMC7582672, “Actions of FTY720 (Fingolimod), a Sphingosine-1-Phosphate Receptor Modulator, on Delayed-Rectifier K^+ Current and Intermediate-Conductance Ca^2+-Activated K^+ Channel in Jurkat T-Lymphocytes” (Molecules, 2020)

Target: T1, intermediate-conductance Ca2+-activated K+ channel (IKCa, KCa3.1) (Homo sapiens, UniProt O15554)
T1 construct: gene KCNN4
Test: cell-attached single-channel recording in Jurkat T-lymphocytes (activator)
Assay type: cell-based

T1 sequence (O15554 whole entry): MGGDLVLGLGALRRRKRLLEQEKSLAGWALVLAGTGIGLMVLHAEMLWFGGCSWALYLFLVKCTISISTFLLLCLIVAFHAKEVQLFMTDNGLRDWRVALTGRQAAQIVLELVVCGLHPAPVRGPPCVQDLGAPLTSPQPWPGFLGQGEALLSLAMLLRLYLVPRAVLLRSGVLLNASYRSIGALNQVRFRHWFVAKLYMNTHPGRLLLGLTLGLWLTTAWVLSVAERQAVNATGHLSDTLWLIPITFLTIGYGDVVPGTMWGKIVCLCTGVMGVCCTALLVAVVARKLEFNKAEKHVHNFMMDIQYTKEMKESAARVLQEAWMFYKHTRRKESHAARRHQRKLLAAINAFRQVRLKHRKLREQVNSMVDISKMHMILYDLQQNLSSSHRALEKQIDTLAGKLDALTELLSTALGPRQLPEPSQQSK

## Oc1cc2ccccc2c2ccccc12 [9-phenanthrol]
  cell-attached single-channel recording in Jurkat T-lymphocytes (activator): activity of IKCa channels, which was sensitive to block by TRAM-34 and to stimulation by 9-phenanthrol, was readily detected
